These results are taken from ChEMBL document CHEMBL1201862, “PubChem BioAssay data set” (2004).

Molecules are shown by their SMILES. Several values for one entry are separate records, joined by “and”; a condition that tells them apart may be missing. Equal values may be shown once.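 Interpolation was linear, between the two tested concentrations surrounding the appropriate level; five concentrations were tested over 48 hours in 96-well plates. GI50: concentration for 50% inhibition of growth.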 Activity calls are given as the source filed them. No stated cut-off is given here; in the data, active = GI50 up to about 1.1 µM and inactive = higher.

Assay in all cases: growth of human tumour cells (NCI), 48 h
In assay [1] the test system is SF-539.
Assay [2] deals with SF-295.
Assay [3] concerns HOP-92.
In assay [4] the test system is OVCAR-3.
Assay [5] relates to SNB-75.
Assay [6] deals with HL-60.
The subject of assay [7] is A498.
Assay [8] has as its system UACC-62.
Assay [9] deals with K562.
Assay [10] has as its system MOLT-4.
The subject of assay [11] is EKVX.
Assay [12] concerns HT-29.
The subject of assay [13] is RPMI-8226.
Assay [14] has as its system HOP-62.
For assay [15], the system named is UO-31.
The test system of assay [16] is RXF 393.
For assay [17], the system named is COLO 205.
The subject of assay [18] is OVCAR-8.
For assay [19], the system named is NCI-H460.
Assay [20] relates to SN12C.

As to `CC1=C(O)C(=O)C2C(=O)C1C(C)C2c1ccc(Cl)cc1` (centres undefined), the GI50 in [1] was > 100 µM (inactive); in assay [2], > 100 µM (inactive); in assay [3], > 100 µM (inactive); in assay [4] it was > 100 µM (inactive); in assay [5], 72.3 µM (inactive); in assay [6] it was > 100 µM (inactive). Further, the GI50 in assay [7], in [8], in assay [9], in [10], in [11] and in assay [12] was > 100 µM (inactive) throughout. Besides, the GI50 in assay [13], in assay [14], in [15], in assay [16], in [17] and in assay [18] was > 100 µM (inactive) each time.
Take `CC(=O)Nc1ccc2cc(C)c(O)nc2n1`: the GI50 in [1] was > 100 µM (inactive); in assay [19], > 100 µM (inactive); in assay [2] it was > 100 µM (inactive); in [3], 54.2 µM (inactive); in [5], 43.7 µM (inactive); in assay [6], > 100 µM (inactive). Also, the GI50 in assay [7], in assay [8], in [9], in assay [10], in [11] and in assay [12] was > 100 µM (inactive) in each case. Also, the GI50 is > 100 µM (inactive) in [20]; > 100 µM (inactive) in assay [13]; > 100 µM (inactive) in assay [15]; 25.9 µM (inactive) in assay [16]; > 100 µM (inactive) in assay [17]; > 100 µM (inactive) in assay [18].
For `COc1cc(OC)nc(NC(=O)NS(=O)(=O)c2cccc3ncn(C)c(=O)c23)n1`, the GI50 in [1] is > 100 µM (inactive); in assay [2], > 100 µM (inactive); in [3], > 100 µM (inactive); in assay [4] it was > 100 µM (inactive); in [5] it was 41.3 µM (inactive); in assay [6], > 100 µM (inactive). For the same compound, the GI50 in assay [7], in [8], in assay [9], in assay [10], in assay [11] and in assay [12] was > 100 µM (inactive) each time. In addition, the GI50 in assay [20], in assay [13], in assay [14], in assay [15], in assay [16] and in assay [17] was > 100 µM (inactive) each time. In addition, the GI50 in [18] is > 100 µM (inactive).
For the compound `CC(=O)O[C@H]1CC2C(C3CC[C@H](C(C)CCC(N)=O)[C@]31C)[C@H](OC(C)=O)C[C@@H]1CC3(CC[C@]21C)OOC1(CCC(C)CC1)OO3` (some centres undefined), the GI50 in assay [1] was 1.9 µM (inactive) and 2.7 µM (inactive); in assay [19], 1.62 µM (inactive) and 2.28 µM (inactive); in assay [2], 2.99 µM (inactive) and 2 µM (inactive); in assay [3] it was 2.79 µM (inactive) and 1.65 µM (inactive); in assay [4], 2.07 µM (inactive) and 1.79 µM (inactive); in assay [6], 2.32 µM (inactive) and 2.93 µM (inactive). Also, the GI50 in assay [7] was 11.7 µM (inactive) and 14.3 µM (inactive); in assay [9], 2.48 µM (inactive) and 3.99 µM (inactive); in [10], 1.72 µM (inactive) and 1.47 µM (inactive); in [12], 2.51 µM (inactive) and 1.54 µM (inactive); in [20], 1.67 µM (inactive) and 2.27 µM (inactive); in assay [13] it was 1.61 µM (inactive) and 1.5 µM (inactive). Further, the GI50 is 1.56 µM (inactive) in assay [15]; 1.95 µM (inactive) and 2.69 µM (inactive) in assay [16]; 1.56 µM (inactive) in [17]; 1.71 µM (inactive) and 1.47 µM (inactive) in [18].
Consider `COc1cc(/C=C2/SC(c3ccccc3)N(c3ccccc3)C2=O)cc(OC)c1OC` (centres undefined), for which the GI50 is > 100 µM (inactive) in [1]; 76 µM (inactive) in [19]; 27 µM (inactive) in [2]; > 100 µM (inactive) in [3]; 65.6 µM (inactive) in assay [4]; 35.6 µM (inactive) in assay [6]. The GI50 in [7] was > 100 µM (inactive); in assay [8], 24.4 µM (inactive); in assay [9], 8.97 µM (inactive); in assay [10], 8.24 µM (inactive); in assay [11], 51.6 µM (inactive); in assay [20], > 100 µM (inactive). Moreover, the GI50 was 9.66 µM (inactive) in assay [13]; 44.8 µM (inactive) in assay [14]; 29.5 µM (inactive) in assay [15]; 23.7 µM (inactive) in assay [16]; 36.9 µM (inactive) in assay [17]; 76.4 µM (inactive) in assay [18].
For `CCOC(=O)C1=C(C)N(Cc2ccc(Cl)cc2Cl)C2(O)C=CC(=O)C3C(=O)N(c4ccccc4)C(=O)C132` (centres undefined), the GI50 was 2.23 µM (inactive) in assay [1]; 2.1 µM (inactive) in assay [19]; 2.88 µM (inactive) in [2]; 1.78 µM (inactive) in assay [3]; 1.37 µM (inactive) in [4]; 1.46 µM (inactive) in [6]. Besides, the GI50 in assay [7] was 4.57 µM (inactive); in assay [8], 1.63 µM (inactive); in assay [9], 0.659 µM (active); in [10], 1.41 µM (inactive); in [11], 1.89 µM (inactive); in [12] it was 1.69 µM (inactive). The GI50 in assay [20] is 1.91 µM (inactive); in assay [13], 0.308 µM (active); in assay [14] it was 2.87 µM (inactive); in assay [15] it was 2.07 µM (inactive); in assay [16], 1.32 µM (inactive); in assay [17] it was 1.7 µM (inactive). Besides, the GI50 in assay [18] is 2.02 µM (inactive).
As for `Cc1cn(C2CC(O)C(Cn3nncc3Cn3ccc(=O)[nH]c3=O)O2)c(=O)[nH]c1=O` (centres undefined), the GI50 in assay [1], in assay [2], in assay [3], in [4], in assay [5] and in [6] was > 100 µM (inactive) throughout. Further, the GI50 in assay [7], in assay [8], in assay [10], in [11], in assay [12] and in [20] was > 100 µM (inactive) each time. For the same compound, the GI50 in assay [13], in assay [14], in assay [15], in assay [16], in assay [17] and in assay [18] was > 100 µM (inactive) throughout.
For the compound `CN1C(=O)C2C=CC1C1CCC2N(C)C1=O` (centres undefined), the GI50 in assay [1], in assay [2], in [3], in [4], in assay [5] and in [6] was > 100 µM (inactive) throughout. Moreover, the GI50 in assay [7], in [8], in assay [9], in [10], in [11] and in [12] was > 100 µM (inactive) each time. Further, the GI50 in assay [20], in [13], in [15], in assay [16], in [17] and in assay [18] was > 100 µM (inactive) in each case.
